In US10738028B2, “Spiro three-membered ring, spiro five-membered ring peptide deformylase inhibitor and use thereof in antibacteria and anti-tumor” (priority 2016, dated 2020):
≈ marks a conversion by molar mass, not a printed value.

Tests used:
Type in all cases: cell-based
[1] = test system: MGC-803 gastric cancer cell line; experiment: CCK-8 proliferation inhibition
Text: (§1) 2. The present invention adopts the CCK-8 method to determine the proliferation inhibition effect of the spiro three-membered ring, spiro five-membered ring peptide deformylase inhibitor as described in Examples 1-80 against colorectal cancer cells, lung cancer cells, gastric cancer cells, liver cancer cells, and the like. […] The compound having the best activity synthesized in Example 64 was further tested for its inhibitory activity against other tumor cells including T cell leukemia, acute myeloid leukemia, cervical cancer, breast cancer, prostate cancer and osteosarcoma, and the like (see Table 7).
(§2) (1) HCT-116 colorectal cancer cell line, A549 lung cancer cell line, MGC-803 gastric cancer cell line, BEL-7402 liver cancer cell line, Jurkat T cell leukemia cell line, HL60 acute myeloid leukemia cell line, Hela cervical cancer cell line, MCF-7 breast cancer cell line, PC3 prostate cancer cell line and SAOS-2 osteosarcoma cell line were made into single cell suspension, 180 μL of which was inoculated into 96-well culture plate, which was cultured overnight in CO2 incubator (37° C., 5% CO2, 95% air).
(§3) (2) Each of the spiro three-membered ring, spiro five membered ring peptide deformylase inhibitors was dissolved in DMSO, and was further formulated into drug solution with required different final concentration using corresponding cell culture medium. The drug solutions were added to the above cells respectively (20 μL/well), with the control group added with 1‰ DMSO, and cultured in a CO2 incubator for 72 hours.
(§4) (3) After incubation for 72 hours, the culture solution was decanted, and 100 μL of 1:10 diluted CCK-8 solution was added.
(§5) Wherein, in step (1), the concentration of the single cell suspension was 2000 cells/well.
(§6) Wherein, in step (2), HCT-116 cells were cultured in McCoy's 5A medium (containing 10% newborn bovine serum, 1% double antibody); A549 and PC3 cells were cultured in F12 medium (containing 10% newborn bovine serum, 1% double antibody); MGC-803, BEL-7402, SAOS-2, Jurkat and HL60 cells were cultured in 1640 medium (containing 10% newborn bovine serum, 1% double antibody); and MCF-7 and Hela cells were cultured in DMEM high glucose medium (containing 10% newborn bovine serum, 1% double antibody).

[2] = test system: BEL-7402 liver cancer cell line; experiment: CCK-8 proliferation inhibition
Text: as §1, §2, §3, §4, §5, §6

[3] = test system: A549 lung cancer cell line; experiment: CCK-8 proliferation inhibition; settings: Homo sapiens
Text: as §1, §2, §3, §4, §5, §6

[4] = test system: methicillin-resistant Staphylococcus aureus (MRSA); experiment: MIC, two-fold agar dilution (CLSI), clinical isolates
Procedure, shortened: (§7)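 Following the American Clinical and Laboratory Standards Institute procedure, agar two-fold dilution served to determine minimum inhibitory concentrations.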

[5] = test system: Escherichia coli (including ESBLs, non-ESBLs); experiment: as above
Procedure, shortened: as §7

[6] = test system: Streptococcus pneoumoniae (SPN); experiment: as above; settings: strain SPN 16-4
Procedure, shortened: as §7

[7] = test system: methicillin-sensitive Staphylococcus epidermidis (MSSE); experiment: as above
Procedure, shortened: as §7

[8] = test system: methicillin-resistant Staphylococcus epidermidis (MRSE); experiment: as above
Procedure, shortened: as §7

[9] = test system: Enterococcus faecium (EFM); experiment: as above
Procedure, shortened: as §7

[10] = test system: Moraxella catarrhalis (BCA); experiment: as above
Procedure, shortened: as §7

[11] = test system: Enterococcus faecalis (EFA); experiment: as above
Procedure, shortened: as §7

[12] = test system: methicillin-sensitive Staphylococcus aureus (MSSA); experiment: as above
Procedure, shortened: as §7

[13] = test system: HCT-116 colorectal cancer cell line; experiment: CCK-8 proliferation inhibition; settings: 72 hours, CCK-8
Procedure, shortened: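 2000 cells/well, McCoy's 5A + 10% newborn bovine serum; overnight attach, 37° C./5% CO2. Cpd from DMSO stock diluted in medium, 72 h. Readout: CCK-8 (1:10). Ctrl 1‰ DMSO.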

[14] = concentration of 30 μM, 72 hours, 30 µM

In the case of `Cc1cnc(NC(=O)[C@@H]2CC3(CC3)CN2C(=O)[C@H](CC2CCCC2)CN(O)C=O)s1` [Example 29, (S)-5-((R)-3-cyclopentylmethyl-2-((N-hydroxyformamido)methyl)propionyl)-N-(5-methylthiazol-2-yl)-5-spiro[2.4]heptane-6-carboxamide], the IC50 ([1]; Homo sapiens, MGC-803, 72 hours) is reported as 7.84 µM, the “Inhibition of proliferation, Gastric cancer MGC-803” value [1, 14] is reported as 78% and the IC50 ([2]; Homo sapiens, Bel-7402, 72 hours) is reported as 7.57 µM. For the same compound, the “Inhibition of proliferation, Liver cancer BEL-7402” value [2, 14] was 79%, the inhibition at 30 µM ([3]; A549, 72 h, concentration of 30 μM) was 36% and the IC50 ([3]; A549, 72 hours) was 13.6 µM. For the same compound, the MIC (anti-bacterial activity) ([4]; strain MRSA 15-1) was 0.125 µg/mL (≈ 0.288 µM), the MIC (anti-bacterial activity) ([4]; strain MRSA 15-2) was 0.125 µg/mL (≈ 0.288 µM) and the MIC (anti-bacterial activity) ([4]; strain MRSA 15-3) was 0.06 µg/mL (≈ 0.138 µM). It also gave an MIC (anti-bacterial activity) ([4]; strain MRSA 15-4) of 0.125 µg/mL (≈ 0.288 µM), an MIC (anti-bacterial activity) ([5]; strain ECO+ 15-1) of 16 µg/mL (≈ 36.8 µM) and an MIC (anti-bacterial activity) ([5]; strain ECO+ 15-2) of 32 µg/mL (≈ 73.6 µM). For the same compound, the MIC (anti-bacterial activity) ([5]; strain ECO+ 15-3) was 16 µg/mL (≈ 36.8 µM), the MIC (anti-bacterial activity) ([5]; strain ECO+ 15-4) was 16 µg/mL (≈ 36.8 µM) and the MIC (anti-bacterial activity) ([5]; strain ECO− 15-1) was 16 µg/mL (≈ 36.8 µM). It also gave an MIC (anti-bacterial activity) ([5]; strain ECO− 15-2) of 16 µg/mL (≈ 36.8 µM), an MIC (anti-bacterial activity) ([5]; strain ECO− 15-3) of 32 µg/mL (≈ 73.6 µM) and an MIC (anti-bacterial activity) ([5]; strain ECO− 15-4) of 16 µg/mL (≈ 36.8 µM). The MIC (anti-bacterial activity) [6] was 4 µg/mL (≈ 9.2 µM), the MIC (anti-bacterial activity) ([7]; strain MSSE 15-3) was 0.125 µg/mL (≈ 0.288 µM) and the MIC (anti-bacterial activity) ([7]; strain MSSE 15-4) was 0.125 µg/mL (≈ 0.288 µM). The MIC (anti-bacterial activity) ([7]; strain MSSE 15-5) was 0.125 µg/mL (≈ 0.288 µM), the MIC (anti-bacterial activity) ([7]; strain MSSE 15-6) was 0.06 µg/mL (≈ 0.138 µM) and the MIC (anti-bacterial activity) ([8]; strain MRSE 15-1) was 0.06 µg/mL (≈ 0.138 µM). It also gave an MIC (anti-bacterial activity) ([8]; strain MRSE 15-2) of 0.125 µg/mL (≈ 0.288 µM), an MIC (anti-bacterial activity) ([8]; strain MRSE 15-3) of 0.125 µg/mL (≈ 0.288 µM) and an MIC (anti-bacterial activity) ([8]; strain MRSE 15-7) of 0.125 µg/mL (≈ 0.288 µM). The MIC (anti-bacterial activity) ([9]; strain EFM 15-1) was 1 µg/mL (≈ 2.3 µM), the MIC (anti-bacterial activity) ([9]; strain EFM 15-2) was 1 µg/mL (≈ 2.3 µM) and the MIC (anti-bacterial activity) ([9]; strain EFM 15-3) was 0.5 µg/mL (≈ 1.15 µM). The MIC (anti-bacterial activity) ([9]; strain EFM 15-4) was 1 µg/mL (≈ 2.3 µM), the MIC (anti-bacterial activity) ([9]; strain EFM 15-5) was 1 µg/mL (≈ 2.3 µM) and the MIC (anti-bacterial activity) ([9]; strain EFM 15-6) was 1 µg/mL (≈ 2.3 µM). The Anti-bacterial activity (MIC), strain BCA 14-10 ([10]; clinical isolate BCA 14-10) was 0.25 µg/mL, the MIC (anti-bacterial activity) ([10]; strain BCA 14-1) was 0.5 µg/mL (≈ 1.15 µM) and the MIC (anti-bacterial activity) ([10]; strain BCA 14-4) was 0.5 µg/mL (≈ 1.15 µM). For the same compound, the MIC (anti-bacterial activity) ([10]; strain BCA 14-5) was 0.125 µg/mL (≈ 0.288 µM), the MIC (anti-bacterial activity) ([10]; strain BCA 14-6) was 0.25 µg/mL (≈ 0.575 µM) and the MIC (anti-bacterial activity) ([10]; strain BCA 14-7) was 0.125 µg/mL (≈ 0.288 µM). It also gave an MIC (anti-bacterial activity) ([10]; strain BCA 14-8) of 0.25 µg/mL (≈ 0.575 µM), an MIC (anti-bacterial activity) ([11]; strain EFA 15-1) of 4 µg/mL (≈ 9.2 µM) and an MIC (anti-bacterial activity) ([11]; strain EFA 15-2) of 4 µg/mL (≈ 9.2 µM). It also gave an MIC (anti-bacterial activity) ([11]; strain EFA 15-3) of 1 µg/mL (≈ 2.3 µM), an MIC (anti-bacterial activity) ([11]; strain EFA 15-4) of 4 µg/mL (≈ 9.2 µM) and an MIC (anti-bacterial activity) ([11]; strain EFA 15-5) of 4 µg/mL (≈ 9.2 µM). It also gave an MIC (anti-bacterial activity) ([11]; strain EFA 15-6) of 4 µg/mL (≈ 9.2 µM), an MIC (anti-bacterial activity) ([11]; strain EFA 15-9) of 2 µg/mL (≈ 4.6 µM) and an MIC (anti-bacterial activity) ([12]; strain MSSA 15-3) of 0.125 µg/mL (≈ 0.288 µM). It also gave an MIC (anti-bacterial activity) ([12]; strain MSSA 15-4) of 0.125 µg/mL (≈ 0.288 µM), an MIC (anti-bacterial activity) ([12]; strain MSSA 15-5) of 0.125 µg/mL (≈ 0.288 µM) and an MIC (anti-bacterial activity) ([12]; strain MSSA 15-6) of 0.125 µg/mL (≈ 0.288 µM). For the same compound, the IC50 ([13]; Homo sapiens, HCT-116) was 8.96 µM and the HCT116 inhibition rate/% ([13]; concentration of 30 μM, 30 µM) was 94%.
